#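 All cell lines were grown in 96-well plates and treated with compound for 48 hours. Definition used: TGI = concentration required for complete inhibition of growth.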
# What was measured:
# Experiment in all cases: growth of human tumour cells (NCI), 48 h
# [1] = test system: SF-539 CNS
# [2] = test system: HCT-15 colon
# [3] = test system: NCI-H522 lung
# [4] = test system: U251 CNS
# [5] = test system: MDA-MB-231 breast
# [6] = test system: MCF7 breast
# [7] = test system: K-562 leukemia
# [8] = test system: SR leukemia
# [9] = test system: M14 melanoma
# [10] = test system: MALME-3M melanoma
# [11] = test system: A549 NSCLC
# [12] = test system: TK-10 renal
# [13] = test system: OVCAR-5 ovarian
# [14] = test system: T-47D breast
# [15] = test system: MDA-N
# [16] = test system: HOP-62 NSCLC
# [17] = test system: NCI-H23 lung
# [18] = test system: IGROV1 ovarian
# [19] = test system: HT29 colon
# [20] = test system: SF-295 CNS
# [21] = test system: OVCAR-4 ovarian
# [22] = test system: PC-3 prostate
# [23] = test system: RXF 393 renal
# [24] = test system: CCRF-CEM leukemia
# [25] = test system: OVCAR-8 ovarian
# [26] = test system: NCI/ADR-RES ovarian
# [27] = test system: HL-60(TB) leukemia
# [28] = test system: HS 578T breast
# [29] = test system: SK-MEL-5 melanoma
# [30] = test system: HCT-116 colon
# [31] = test system: CAKI-1 renal
# [32] = test system: BT-549 breast
# [33] = test system: COLO 205 colon
# [34] = test system: 786-0 renal
# [35] = test system: UACC-62 melanoma
# [36] = test system: UACC-257 melanoma
# [37] = test system: SF-268 CNS
# [38] = test system: MOLT-4 leukemia
# [39] = test system: A498 renal
# [40] = test system: NCI-H460 lung
# [41] = test system: EKVX NSCLC
# [42] = test system: SK-MEL-2 melanoma
# [43] = test system: DU-145 prostate
# [44] = test system: MDA-MB-435
# [45] = test system: OVCAR-3 ovarian
# [46] = test system: HCC-2998 colon
# [47] = test system: SN12C renal
# [48] = test system: SK-OV-3 ovarian
# [49] = test system: NCI-H226 lung
# [50] = test system: KM12 colon
# [51] = test system: HOP-92 NSCLC
# [52] = test system: LOX IMVI melanoma
# [53] = test system: SNB-19 CNS
# [54] = test system: SNB-75 CNS
# [55] = test system: SW-620 colon
# [56] = test system: ACHN renal
# [57] = test system: SK-MEL-28 melanoma
# [58] = test system: UO-31 renal
# [59] = test system: RPMI-8226 leukemia
structure (smiles),measurement,setting,value
O=C(O)/C=C\C(=O)Nn1c(Cc2ccc(Cl)cc2)n[nH]c1=O,TGI,[1],> 100 µM
same,TGI,[2],> 100 µM
same,TGI,[3],> 100 µM
same,TGI,[4],> 100 µM
same,TGI,[5],> 100 µM
same,TGI,[6],> 100 µM
same,TGI,[7],> 100 µM
same,TGI,[8],> 100 µM
same,TGI,[9],> 100 µM
same,TGI,[10],> 100 µM
same,TGI,[11],> 100 µM
same,TGI,[12],> 100 µM
same,TGI,[13],> 100 µM
same,TGI,[14],> 100 µM
same,TGI,[15],> 100 µM
same,TGI,[16],> 100 µM
same,TGI,[17],> 100 µM
same,TGI,[18],> 100 µM
same,TGI,[19],> 100 µM
same,TGI,[20],> 100 µM
same,TGI,[21],> 100 µM
same,TGI,[22],> 100 µM
same,TGI,[23],> 100 µM
same,TGI,[24],> 100 µM
same,TGI,[25],> 100 µM
same,TGI,[26],> 100 µM
same,TGI,[27],> 100 µM
same,TGI,[28],> 100 µM
same,TGI,[29],> 100 µM
same,TGI,[30],> 100 µM
same,TGI,[31],> 100 µM
same,TGI,[32],> 100 µM
same,TGI,[33],> 100 µM
same,TGI,[34],> 100 µM
same,TGI,[35],> 100 µM
same,TGI,[36],> 100 µM
same,TGI,[37],> 100 µM
same,TGI,[38],> 100 µM
same,TGI,[39],> 100 µM
same,TGI,[40],> 100 µM
same,TGI,[41],> 100 µM
same,TGI,[42],> 100 µM
same,TGI,[43],> 100 µM
same,TGI,[44],> 100 µM
same,TGI,[45],> 100 µM
same,TGI,[46],> 100 µM
same,TGI,[47],> 100 µM
same,TGI,[48],> 100 µM
same,TGI,[49],> 100 µM
CC(C)(C)OC(=O)c1ccc(NCC2=C(Br)C(=O)C=CC2=O)cc1,TGI,[1],52.8 µM
same,TGI,[2],32 µM
same,TGI,[3],13 µM
same,TGI,[4],> 66.6 µM
same,TGI,[5],47 µM
same,TGI,[6],48.4 µM
same,TGI,[7],> 58 µM
same,TGI,[8],79.7 µM
same,TGI,[9],85.4 µM
same,TGI,[10],30.6 µM
same,TGI,[11],> 100 µM
same,TGI,[12],48.2 µM
same,TGI,[13],56.1 µM
same,TGI,[50],> 100 µM
same,TGI,[51],28.4 µM
same,TGI,[14],41.4 µM
same,TGI,[15],48.1 µM
same,TGI,[16],> 100 µM
same,TGI,[17],50.6 µM
same,TGI,[52],31.4 µM
same,TGI,[18],> 66.9 µM
same,TGI,[19],33.9 µM
same,TGI,[20],> 100 µM
same,TGI,[21],33 µM
same,TGI,[22],> 100 µM
same,TGI,[23],37.5 µM
same,TGI,[24],> 24.9 µM
same,TGI,[25],39.8 µM
same,TGI,[53],> 100 µM
same,TGI,[26],62.9 µM
same,TGI,[28],67.3 µM
same,TGI,[54],> 83.3 µM
same,TGI,[29],41.6 µM
same,TGI,[55],34.9 µM
same,TGI,[56],33.6 µM
same,TGI,[30],35.2 µM
same,TGI,[31],26.8 µM
same,TGI,[32],26.5 µM
same,TGI,[33],33.6 µM
same,TGI,[34],37.5 µM
same,TGI,[35],36.1 µM
same,TGI,[36],61.3 µM
same,TGI,[37],> 67.8 µM
same,TGI,[38],45.7 µM
same,TGI,[57],41.2 µM
same,TGI,[40],> 83.6 µM
same,TGI,[41],53.9 µM
same,TGI,[42],> 71.1 µM
same,TGI,[43],> 94.3 µM
same,TGI,[44],41.3 µM
same,TGI,[45],27.7 µM
same,TGI,[58],28.6 µM
same,TGI,[46],48 µM
same,TGI,[47],44 µM
same,TGI,[48],> 100 µM
same,TGI,[49],> 90.1 µM
same,TGI,[59],> 100 µM
